# Active and inactive are the calls of the source. No cut-off for these calls is given here.
# What was measured:
# [1] = biological target: T1, Tryptophan 5-hydroxylase 1 (Homo sapiens, UniProt P17752)
# T1 sequence (P17752 whole entry): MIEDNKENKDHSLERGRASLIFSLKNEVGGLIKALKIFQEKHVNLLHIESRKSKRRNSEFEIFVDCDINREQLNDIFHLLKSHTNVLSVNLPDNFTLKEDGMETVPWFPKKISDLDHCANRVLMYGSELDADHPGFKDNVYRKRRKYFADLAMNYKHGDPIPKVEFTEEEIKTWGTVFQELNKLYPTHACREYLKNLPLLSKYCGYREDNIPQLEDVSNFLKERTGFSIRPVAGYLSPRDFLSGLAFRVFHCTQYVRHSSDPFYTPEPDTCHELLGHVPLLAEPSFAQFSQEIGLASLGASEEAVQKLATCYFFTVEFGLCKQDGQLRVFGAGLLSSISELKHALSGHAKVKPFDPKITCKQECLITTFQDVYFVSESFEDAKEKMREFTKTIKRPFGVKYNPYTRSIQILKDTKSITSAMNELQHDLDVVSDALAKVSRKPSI
# Description: Inhibition of TPH1 (unknown origin)
# Mus musculus [2] = assay: In vivo inhibition of TPH1 in mouse assessed as reduction in 5-HT level in intestinal mucosa at 50 mg/kg, po administered daily as single dose relative to control; type: functional
# [3] = Drug level in rat hepatocytes treated with ethyl 8-(2-amino-6-((R)-1-(4-chloro-2-(3-methyl-1H-pyrazol-1-yl)phenyl)-2,2,2-trifluoroethoxy)pyrimidin-4-yl)-2,8-diazaspiro[4.5]decane-3-carboxylate; type: ADME, cell-based, Hepatocyte
# Mus musculus [4] = assay: Drug level in mouse treated with (S)-ethyl 8-(2-amino-6-((R)-1-(5-chloro-3'-methoxybiphenyl-2-yl)-2,2,2-trifluoroethoxy)pyrimidin-4-yl)-2,8-diazaspiro[4.5]decane-3-carboxylate at 10 to 50 mg/kg, po administered as single dose; type: ADME, organism-based; conditions: in vivo
# Mus musculus [5] = assay: Prodrug activation in mouse assessed as (S)-8-(2-amino-6-((R)-1-(5-chloro-3',5'-difluorobiphenyl-2-yl)-2,2,2-trifluoroethoxy)pyrimidin-4-yl)-2,8-diazaspiro[4.5]decane-3-carboxylic acid formation at 10 to 50 mg/kg, po administered as single dose; type: organism-based; conditions: in vivo
# Mus musculus [6] = assay: In vivo inhibition of TPH1 in mouse assessed as reduction in 5-HT level in intestinal mucosa at 10 mg/kg, po administered daily as single dose relative to control; type: functional
# Mus musculus [7] = assay: Drug level in mouse treated with (S)-ethyl 8-(2-amino-6-((R)-1-(3'-tert-butyl-5-chlorobiphenyl-2-yl)-2,2,2-trifluoroethoxy)pyrimidin-4-yl)-2,8-diazaspiro[4.5]decane-3-carboxylate at 10 to 50 mg/kg, po administered as single dose; type: ADME, organism-based; conditions: in vivo
# Mus musculus [8] = assay: Drug level in mouse treated with (S)-ethyl 8-(2-amino-6-((R)-1-(5-chloro-3'-methylbiphenyl-2-yl)-2,2,2-trifluoroethoxy)pyrimidin-4-yl)-2,8-diazaspiro[4.5]decane-3-carboxylate at 10 to 50 mg/kg, po administered as single dose; type: ADME, organism-based; conditions: in vivo
# Mus musculus [9] = assay: Prodrug activation in mouse assessed as (S)-8-(2-amino-6-((R)-1-(5-chloro-3'-methylbiphenyl-2-yl)-2,2,2-trifluoroethoxy)pyrimidin-4-yl)-2,8-diazaspiro[4.5]decane-3-carboxylic acid formation at 10 to 50 mg/kg, po administered as single dose; type: organism-based; conditions: in vivo
# Mus musculus [10] = assay: Drug level in mouse treated (S)-ethyl 8-(2-amino-6-((R)-1-(5-chloro-3'-fluorobiphenyl-2-yl)-2,2,2-trifluoroethoxy)pyrimidin-4-yl)-2,8-diazaspiro[4.5]decane-3-carboxylate at 10 to 50 mg/kg, po administered as single dose; type: ADME, organism-based; conditions: in vivo
# Mus musculus [11] = assay: Prodrug activation in mouse assessed as (S)-8-(2-amino-6-((R)-1-(5-chloro-3'-fluorobiphenyl-2-yl)-2,2,2-trifluoroethoxy)pyrimidin-4-yl)-2,8-diazaspiro[4.5]decane-3-carboxylic acid formation at 10 to 50 mg/kg, po administered as single dose; type: organism-based; conditions: in vivo
# Mus musculus [12] = assay: Drug level in mouse treated with (S)-ethyl 8-(2-amino-6-((R)-1-(5-chloro-3'-(methylsulfonyl)biphenyl-2-yl)-2,2,2-trifluoroethoxy)pyrimidin-4-yl)-2,8-diazaspiro[4.5]decane-3-carboxylate at 10 to 50 mg/kg, po administered as single dose; type: ADME, organism-based; conditions: in vivo
# Mus musculus [13] = assay: Drug level in mouse treated with (S)-ethyl 8-(2-amino-6-((R)-1-(5-chloro-3'-(trifluoromethyl)biphenyl-2-yl)-2,2,2-trifluoroethoxy)pyrimidin-4-yl)-2,8-diazaspiro[4.5]decane-3-carboxylate at 10 to 50 mg/kg, po administered as single dose; type: ADME, organism-based; conditions: in vivo
# Mus musculus [14] = assay: Drug level in mouse treated with (S)-ethyl 8-(2-amino-6-((R)-1-(5-chloro-3',5'-difluorobiphenyl-2-yl)-2,2,2-trifluoroethoxy)pyrimidin-4-yl)-2,8-diazaspiro[4.5]decane-3-carboxylate at 10 to 50 mg/kg, po administered as single dose; type: ADME, organism-based; conditions: in vivo
# Mus musculus [15] = assay: Drug level in mouse treated with (S)-ethyl 8-(2-amino-6-((R)-1-(5-chloro-3'-sulfamoylbiphenyl-2-yl)-2,2,2-trifluoroethoxy)pyrimidin-4-yl)-2,8-diazaspiro[4.5]decane-3-carboxylate at 10 to 50 mg/kg, po administered as single dose; type: ADME, organism-based; conditions: in vivo
# Mus musculus [16] = assay: Prodrug activation in mouse assessed as (S)-8-(2-amino-6-((R)-1-(3'-tert-butyl-5-chlorobiphenyl-2-yl)-2,2,2-trifluoroethoxy)pyrimidin-4-yl)-2,8-diazaspiro[4.5]decane-3-carboxylic acid formation at 10 to 50 mg/kg, po administered as single dose; type: organism-based; conditions: in vivo
SMILES,IC50 [1],inhibition (Mus musculus [2]),further results
Nc1nc(O[C@H](c2ccc(Cl)cc2-n2ccc(COS(=O)(=O)O)n2)C(F)(F)F)cc(N2CCC3(CC2)CNC(C(=O)O)C3)n1 (some centres undefined),–,–,Drug metabolism [3]: Metabolite_Detected
CCOC(=O)[C@@H]1CC2(CCN(c3cc(O[C@H](c4ccc(Cl)cc4-c4cc(F)cc(F)c4)C(F)(F)F)nc(N)n3)CC2)CN1,–,–,Drug metabolism (Mus musculus [5]): Metabolite_Detected; inhibition in vivo at 50 mg/kg (Mus musculus [2]): 37%; inhibition in vivo at 10 mg/kg (Mus musculus [6]): 30%
CC(C)(C)c1cccc(-c2cc(Cl)ccc2[C@@H](Oc2cc(N3CCC4(CC3)CN[C@H](C(=O)O)C4)nc(N)n2)C(F)(F)F)c1,23 nM,–,Drug metabolism (Mus musculus [7]): Metabolite_Detected
CCOC(=O)[C@@H]1CC2(CCN(c3cc(O[C@H](c4ccc(-c5ccc6c(c5)CCN(C)C6=O)cc4)C(F)(F)F)nc(N)n3)CC2)CN1,–,inactive,–
CCOC(=O)[C@@H]1CC2(CCN(c3cc(O[C@H](c4ccc(Cl)cc4-c4cccc(C)c4)C(F)(F)F)nc(N)n3)CC2)CN1,–,–,Drug metabolism (Mus musculus [9]): Metabolite_Detected; inhibition in vivo at 50 mg/kg (Mus musculus [2]): 54%; inhibition in vivo at 10 mg/kg (Mus musculus [6]): 24%
CCOC(=O)[C@@H]1CC2(CCN(c3cc(O[C@H](c4ccc(-c5ccc6c(cnn6C)c5)cc4)C(F)(F)F)nc(N)n3)CC2)CN1,–,inactive,–
CCOC(=O)[C@@H]1CC2(CCN(c3cc(O[C@H](c4ccc(-c5ccc6[nH]ncc6c5)cc4)C(F)(F)F)nc(N)n3)CC2)CN1,–,inactive,–
CCOC(=O)[C@@H]1CC2(CCN(c3cc(O[C@H](c4ccc(-c5ccc6cnccc6c5)cc4)C(F)(F)F)nc(N)n3)CC2)CN1,–,inactive,–
Nc1nc(O[C@H](c2ccc(Cl)cc2-n2ccc(C(=O)O)n2)C(F)(F)F)cc(N2CCC3(CC2)CNC(C(=O)O)C3)n1 (some centres undefined),–,–,Drug metabolism [3]: Metabolite_Detected
CCOC(=O)[C@@H]1CC2(CCN(c3cc(O[C@H](c4ccc(Cl)cc4)C(F)(F)F)nc(N)n3)CC2)CN1,–,inactive,–
CCOC(=O)[C@@H]1CC2(CCN(c3cc(O[C@H](c4ccc(Cl)cc4-c4cccc(F)c4)C(F)(F)F)nc(N)n3)CC2)CN1,–,–,inhibition in vivo at 50 mg/kg (Mus musculus [2]): 61%; inhibition in vivo at 10 mg/kg (Mus musculus [6]): 38%; Drug metabolism (Mus musculus [11]): Metabolite_Detected
Nc1nc(O[C@H](c2ccc(Cl)cc2-n2ccc(CO)n2)C(F)(F)F)cc(N2CCC3(CC2)CNC(C(=O)O)C3)n1 (some centres undefined),–,–,Drug metabolism [3]: Metabolite_Detected
CS(=O)(=O)c1cccc(-c2cc(Cl)ccc2[C@@H](Oc2cc(N3CCC4(CC3)CN[C@H](C(=O)O)C4)nc(N)n2)C(F)(F)F)c1,14 nM,–,Drug metabolism (Mus musculus [12]): Metabolite_Detected
CCOC(=O)[C@@H]1CC2(CCN(c3cc(O[C@H](c4ccc(Cl)cc4-n4ccc(C)n4)C(F)(F)F)nc(N)n3)CC2)CN1,–,–,inhibition in vivo at 50 mg/kg (Mus musculus [2]): 61%
Nc1nc(O[C@H](c2ccc(Cl)cc2-c2cccc(C(F)(F)F)c2)C(F)(F)F)cc(N2CCC3(CC2)CN[C@H](C(=O)O)C3)n1,21 nM,–,Drug metabolism (Mus musculus [13]): Metabolite_Detected
Nc1nc(O[C@H](c2ccc(Cl)cc2-c2cc(F)cc(F)c2)C(F)(F)F)cc(N2CCC3(CC2)CN[C@H](C(=O)O)C3)n1,22 nM,–,Drug metabolism (Mus musculus [14]): Metabolite_Detected
CCOC(=O)[C@@H]1CC2(CCN(c3cc(O[C@H](c4ccc(-c5ccc6c(C)nn(C)c6c5)cc4)C(F)(F)F)nc(N)n3)CC2)CN1,–,inactive,–
Nc1nc(O[C@H](c2ccc(Cl)cc2-c2cccc(S(N)(=O)=O)c2)C(F)(F)F)cc(N2CCC3(CC2)CN[C@H](C(=O)O)C3)n1,11 nM,–,Drug metabolism (Mus musculus [15]): Metabolite_Detected
CCOC(=O)[C@@H]1CC2(CCN(c3cc(O[C@H](c4ccc(Cl)cc4-c4cccc(C(C)(C)C)c4)C(F)(F)F)nc(N)n3)CC2)CN1,–,–,inhibition in vivo at 50 mg/kg (Mus musculus [2]): 59%; inhibition in vivo at 10 mg/kg (Mus musculus [6]): 33%; Drug metabolism (Mus musculus [16]): Metabolite_Detected
CCOC(=O)[C@@H]1CC2(CCN(c3cc(O[C@H](c4ccc(-c5ccc(OC)cc5)cc4-n4ccc(C)n4)C(F)(F)F)nc(N)n3)CC2)CN1,–,–,inhibition in vivo at 50 mg/kg (Mus musculus [2]): 46%

# The next lines start with results.
IC50 [1],SMILES,inhibition (Mus musculus [2]),further results
32 nM,Cc1nn(C)c2cc(-c3ccc([C@@H](Oc4cc(N5CCC6(CC5)CN[C@H](C(=O)O)C6)nc(N)n4)C(F)(F)F)cc3)ccc12,inactive,–
30 nM,Cn1ncc2cc(-c3ccc([C@@H](Oc4cc(N5CCC6(CC5)CN[C@H](C(=O)O)C6)nc(N)n4)C(F)(F)F)cc3)ccc21,inactive,–
19 nM,COc1cccc(-c2cc(Cl)ccc2[C@@H](Oc2cc(N3CCC4(CC3)CN[C@H](C(=O)O)C4)nc(N)n2)C(F)(F)F)c1,–,Drug metabolism (Mus musculus [4]): Metabolite_Detected
25 nM,Nc1nc(O[C@H](c2ccc(-c3ccc4cnccc4c3)cc2)C(F)(F)F)cc(N2CCC3(CC2)CN[C@H](C(=O)O)C3)n1,inactive,–
28 nM,Nc1nc(O[C@H](c2ccc(-c3ccc4c(c3)CCC(=O)N4)cc2)C(F)(F)F)cc(N2CCC3(CC2)CN[C@H](C(=O)O)C3)n1,inactive,–
40 nM,Nc1nc(O[C@H](c2ccc(-c3ccc4ncc(F)cc4c3)cc2)C(F)(F)F)cc(N2CCC3(CC2)CN[C@H](C(=O)O)C3)n1,inactive,–
26 nM,Cc1cccc(-c2cc(Cl)ccc2[C@@H](Oc2cc(N3CCC4(CC3)CN[C@H](C(=O)O)C4)nc(N)n2)C(F)(F)F)c1,–,Drug metabolism (Mus musculus [8]): Metabolite_Detected
37 nM,Cc1c2ccc(-c3ccc([C@@H](Oc4cc(N5CCC6(CC5)CN[C@H](C(=O)O)C6)nc(N)n4)C(F)(F)F)cc3)cc2nn1C,inactive,–
460 nM,Nc1nc(O[C@H](c2ccc(Cl)cc2)C(F)(F)F)cc(N2CCC3(CC2)CN[C@H](C(=O)O)C3)n1,inactive,–
32 nM,Nc1nc(O[C@H](c2ccc(-c3ccc4[nH]ncc4c3)cc2)C(F)(F)F)cc(N2CCC3(CC2)CN[C@H](C(=O)O)C3)n1,inactive,–
32 nM,Nc1nc(O[C@H](c2ccc(Cl)cc2-c2cccc(F)c2)C(F)(F)F)cc(N2CCC3(CC2)CN[C@H](C(=O)O)C3)n1,–,Drug metabolism (Mus musculus [10]): Metabolite_Detected
39 nM,CN1CCc2cc(-c3ccc([C@@H](Oc4cc(N5CCC6(CC5)CN[C@H](C(=O)O)C6)nc(N)n4)C(F)(F)F)cc3)ccc2C1=O,inactive,–
26 nM,CSc1ccc2cc(-c3ccc([C@@H](Oc4cc(N5CCC6(CC5)CN[C@H](C(=O)O)C6)nc(N)n4)C(F)(F)F)cc3)ccc2n1,inactive,–

# Reference: ChEMBL document CHEMBL4000220, “Optimization of spirocyclic proline tryptophan hydroxylase-1 inhibitors” (Bioorg Med Chem Lett, 2017)
